Tests used:
Experiment in all cases: relative viability (nuclei count vs DMSO), 5 days (fraction); higher = more cells survive
Darinaparsin + Foretinib = compound: C[As](C)SC[C@H](NC(=O)CC[C@H](N)C(=O)O)C(=O)NCC(=O)O [Darinaparsin] + COc1cc2c(Oc3ccc(NC(=O)C4(C(=O)Nc5ccc(F)cc5)CC4)cc3F)ccnc2cc1OCCCN1CCOCC1 [Foretinib] (partner 0.25 µM)
Outline: (§1)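 A single step with final 0.05% Triton X-100, 1% formaldehyde and 1 ug/ml Hoechst fixed the cells and stained nuclei 5 days after treatment. Lung cancer cell lines in 1536-well plates had been treated by pin tool the day after seeding with one drug alone or a fixed anchor-drug dose plus five library-drug doses (not always all listed) in √10 steps, and nuclei were counted on 4× images. Relative viability is the ratio of nuclei in treated wells to nuclei in vehicle wells, taken as the median of duplicate plates.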

Darinaparsin + Alpelisib = compound: C[As](C)SC[C@H](NC(=O)CC[C@H](N)C(=O)O)C(=O)NCC(=O)O [Darinaparsin] + Cc1nc(NC(=O)N2CCC[C@H]2C(N)=O)sc1-c1ccnc(C(C)(C)C(F)(F)F)c1 [Alpelisib] (partner 2 µM)
Outline: as §1

[1] = compound: C[As](C)SC[C@H](NC(=O)CC[C@H](N)C(=O)O)C(=O)NCC(=O)O [Darinaparsin] + C[C@@H](Oc1cc(-c2cnn(C3CCNCC3)c2)cnc1N)c1c(Cl)ccc(F)c1Cl [Crizotinib] (partner 1 µM)
Outline: as §1

[2] = compound: C[As](C)SC[C@H](NC(=O)CC[C@H](N)C(=O)O)C(=O)NCC(=O)O [Darinaparsin] + Cc1cc(Nc2cc(N3CCN(C)CC3)nc(Sc3ccc(NC(=O)C4CC4)cc3)n2)n[nH]1 [Tozasertib] (partner 0.1 µM)
Outline: as §1

Darinaparsin + OSI-027 = compound: C[As](C)SC[C@H](NC(=O)CC[C@H](N)C(=O)O)C(=O)NCC(=O)O [Darinaparsin] + COc1cccc2cc(-c3nc([C@H]4CC[C@H](C(=O)O)CC4)n4ncnc(N)c34)[nH]c12 [OSI-027] (partner 0.5 µM)
Outline: as §1

| Cell Line | relative viability (Darinaparsin + Foretinib; first compound 0.08 µM) | relative viability (Darinaparsin + Foretinib; first compound 0.8 µM) | relative viability (Darinaparsin + Foretinib; first compound 2.53 µM) | relative viability (Darinaparsin + Foretinib; first compound 8 µM) | relative viability (Darinaparsin + Alpelisib; first compound 0.08 µM) | relative viability (Darinaparsin + Alpelisib; first compound 0.8 µM) | relative viability (Darinaparsin + Alpelisib; first compound 2.53 µM) | relative viability (Darinaparsin + Alpelisib; first compound 8 µM) | relative viability ([1]; first compound 0.08 µM) | relative viability ([1]; first compound 0.8 µM) | relative viability ([1]; first compound 2.53 µM) | relative viability ([1]; first compound 8 µM) | relative viability ([2]; first compound 0.08 µM) | relative viability ([2]; first compound 0.8 µM) | relative viability ([2]; first compound 2.53 µM) | relative viability ([2]; first compound 8 µM) | relative viability (Darinaparsin + OSI-027; first compound 0.08 µM) | relative viability (Darinaparsin + OSI-027; first compound 0.8 µM) | relative viability (Darinaparsin + OSI-027; first compound 2.53 µM) | relative viability (Darinaparsin + OSI-027; first compound 8 µM) |
| --- | --- | --- | --- | --- | --- | --- | --- | --- | --- | --- | --- | --- | --- | --- | --- | --- | --- | --- | --- | --- |
| A549 | 1.27 | 0.991 | 0.896 | 1.41 | 0.973 | 0.812 | 0.746 | 1.08 | 1.33 | 0.891 | 0.605 | 0.985 | – | – | – | – | – | – | – | – |
| NCI-H1395 | 1.13 | 0.958 | 0.944 | 0.952 | 1.17 | 0.912 | 0.909 | 0.945 | – | – | – | – | 0.839 | 0.771 | 0.765 | 0.723 | 0.744 | 0.636 | 0.586 | 0.628 |
| IA-LM | 1.51 | 1.27 | 1.35 | 1.55 | 1.02 | 0.663 | 1.4 | 0.965 | 1.06 | 0.645 | 0.788 | 0.923 | – | – | – | – | – | – | – | – |
| Calu-6 | 1.04 | 1.02 | 0.861 | 0.938 | 1.14 | 0.975 | 1.02 | 0.945 | 1.17 | 0.857 | 0.665 | 0.751 | – | – | – | – | – | – | – | – |
| NCI-H1648 | – | – | – | – | – | – | – | – | – | – | – | – | 0.346 | 0.53 | – | 0.474 | 0.297 | 0.237 | – | 0.269 |
| NCI-H1650 | 0.869 | 1.06 | 0.791 | 1.33 | – | – | – | – | 1.14 | 0.98 | 0.795 | 1.17 | 0.473 | 0.325 | 0.417 | 0.394 | 0.567 | 0.612 | 0.504 | 0.757 |
| NCI-H1623 | 0.902 | 0.832 | 0.871 | 0.868 | – | – | – | – | – | – | – | – | 0.467 | 0.404 | 0.416 | 0.399 | 0.429 | 0.496 | 0.471 | 0.393 |
| NCI-H1703 | 0.377 | 0.328 | – | 0.307 | 0.612 | 0.345 | 0.283 | 0.39 | 1.45 | 0.859 | 0.483 | 0.607 | – | – | – | – | – | – | – | – |
| NCI-H1793 | 0.766 | 0.77 | 0.524 | 0.829 | 0.716 | 0.935 | 0.643 | 0.958 | – | – | – | – | 0.344 | 0.305 | 0.278 | 0.385 | 0.329 | 0.254 | 0.27 | 0.309 |
| ChaGo-K-1 | 0.962 | 0.97 | 0.873 | 1.13 | – | – | – | – | 1.38 | 1.14 | 0.924 | 1.1 | 0.266 | 0.206 | 0.242 | 0.232 | 0.612 | 0.518 | 0.516 | 0.715 |
| NCI-H1563 | 1.02 | 0.901 | 0.826 | 0.999 | 0.903 | 0.91 | 1.01 | 0.894 | 0.903 | 0.768 | 0.87 | 0.874 | – | – | – | – | 0.752 | 0.735 | 0.71 | 0.708 |
| NCI-H1792 | – | – | – | – | 0.684 | 0.575 | 0.493 | 1.03 | 1.95 | 0.989 | 0.654 | 1.34 | – | – | – | – | 0.847 | 0.604 | 0.866 | 0.96 |
